Test results published in US20230026163A1, “ANTICANCER COMPOUND AND MEDICAL USE THEREOF” (ASCENTAWITS PHARMACEUTICALS, LTD., priority 2019, published 2023).

What was measured:
[1] = tested on: H460 non-small cell lung cancer; assay: Cytotoxicity test of human tumor cell line in vitro (CTG, 72 hours); format: cell-based; details: for IC50: Homo sapiens, NCI-H460, H460, 72 hours exposure; for Anticancer activity compared to the compound of control 2: H460
Experimental: IC50 values were obtained by the following methods. The cancer cells were exposed to various concentrations of compounds for 72 hours. Following by washing steps, fresh medium was added to allow the growth of the cancer cells. The cancer cells were stained to obtain cell viability. Then, comparisons were made with the medium-only control.
Specifically, the exponentially growing cells were seeded in 96-well plates at a density of 2×10^3 cells/well, and 100 μL/well. The cells were incubated for 24 hours at 37° C., in 5% CO2, in 95% air, and 100% relative humidity. Next, 99 μL of culture medium was added. The compounds were dissolved in 100% DMSO at 200 times the desired final test concentration. Upon addition of compounds, the compounds were further diluted to 4 times the desired final concentration with a complete medium. Aliquots of 1 μL of compounds at specific concentration were added to the micro-wells containing 199 μL of medium to obtain the final compound concentrations as reported. After the compounds were added, the plates were incubated for an addition 72 hours at 37° C., in 5% CO2, in 95% air, and 100% relative humidity.
The plates to be test containing the cells were equilibrated at room temperature for 30 minutes, and 100 μL of medium per well was discarded. 100 μL of CTG reagent (CelltiterGlo Kit) was added to each well. The plates were placed in a fast-shaker to shake for 2 minutes, and placed at room temperature for 30 minutes in the dark. Chemoluminescence signal values were read with Envision instrument.

P-glycoprotein = P-glycoprotein (Homo sapiens, UniProt P08183); assay: in vitro; details: for Papp A→B at 2 h / Papp B→A at 2 h / recovery at 2 h: dog; for Papp A→B at 2 h / Papp B→A at 2 h: MDCK-MDR1; for P-glycoprotein substrate (experimental conclusion): with vs without Verapamil
Sequence of P-glycoprotein (P08183 whole entry): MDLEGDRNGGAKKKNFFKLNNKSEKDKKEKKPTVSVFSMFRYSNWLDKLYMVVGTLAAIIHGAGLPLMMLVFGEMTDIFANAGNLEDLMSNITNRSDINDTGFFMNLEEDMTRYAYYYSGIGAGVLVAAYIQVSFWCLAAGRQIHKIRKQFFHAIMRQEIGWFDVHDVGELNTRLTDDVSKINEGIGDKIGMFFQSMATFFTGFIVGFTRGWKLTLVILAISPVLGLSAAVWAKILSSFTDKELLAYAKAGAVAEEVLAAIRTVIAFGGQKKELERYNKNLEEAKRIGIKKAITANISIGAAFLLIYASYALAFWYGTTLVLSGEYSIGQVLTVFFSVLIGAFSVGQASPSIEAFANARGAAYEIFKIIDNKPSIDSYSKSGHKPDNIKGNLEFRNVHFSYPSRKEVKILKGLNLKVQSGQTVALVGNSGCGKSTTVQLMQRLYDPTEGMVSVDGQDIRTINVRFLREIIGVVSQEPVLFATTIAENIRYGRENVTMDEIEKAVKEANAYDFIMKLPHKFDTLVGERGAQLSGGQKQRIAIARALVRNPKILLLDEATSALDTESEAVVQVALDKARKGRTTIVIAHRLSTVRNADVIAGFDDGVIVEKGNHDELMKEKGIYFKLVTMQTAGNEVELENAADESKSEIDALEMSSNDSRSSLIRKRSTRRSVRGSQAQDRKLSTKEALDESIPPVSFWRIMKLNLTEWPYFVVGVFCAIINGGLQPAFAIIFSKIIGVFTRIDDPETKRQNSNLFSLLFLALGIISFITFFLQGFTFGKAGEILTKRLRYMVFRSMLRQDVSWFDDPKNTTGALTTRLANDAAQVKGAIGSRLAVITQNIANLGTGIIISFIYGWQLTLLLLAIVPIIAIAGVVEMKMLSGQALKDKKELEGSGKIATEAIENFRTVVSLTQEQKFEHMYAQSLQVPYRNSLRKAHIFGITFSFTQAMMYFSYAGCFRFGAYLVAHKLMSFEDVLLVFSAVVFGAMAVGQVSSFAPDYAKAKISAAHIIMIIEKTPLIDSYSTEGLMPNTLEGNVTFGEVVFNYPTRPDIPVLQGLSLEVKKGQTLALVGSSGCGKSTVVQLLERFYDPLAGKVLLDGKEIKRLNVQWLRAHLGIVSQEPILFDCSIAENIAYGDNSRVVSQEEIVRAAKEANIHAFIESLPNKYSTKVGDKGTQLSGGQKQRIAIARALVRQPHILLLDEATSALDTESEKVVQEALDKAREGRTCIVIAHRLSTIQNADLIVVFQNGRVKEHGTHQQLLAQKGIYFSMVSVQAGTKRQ
Experimental: MDCKII-MDR1 cells were incubated in cell culture flasks. The incubator was set at 37° C., 5% CO2, and a guaranteed relative humidity of 95%. When the cells reached 70 to 90% confluence, the cells may be seeded to transwells.
50 μL of the cell suspensions were added to the apical chambers of each well of the 96-well transwells at a final seeding density of 5.45×10^5 cells/cm^2.
MDCKII-MDR1 cells may be fully confluent and differentiated after 4 to 8 days of incubation. At this time, the cells may be applied to penetration test. The monolayer membrane resistance was measured with a resistance meter (Millipore), and the resistance per well was recorded. After the test, the transwells were returned to the incubator.
The transwells with MDCKII-MDR1 cells were taken from the incubator. The cell monolayers were rinsed twice with buffer and incubated at 37° C. for 30 minutes.
The rate of the compounds from an apical end to a basolateral end was determined. 75 μL of the buffer containing the test sample was added to each well of the apical chambers (apical end), and 235 μL of the buffer was added to each well of the basolateral chambers (basolateral end).
The rate of the compounds transporting from the basolateral end to the apical end was determined. 75 μL of the buffer was added to the apical chambers (apical end), and 235 μL of the buffer containing the test sample was added to the basolateral chamber (basolateral end).
After the apical chambers and the basolateral chambers were combined respectively, the transwells were incubated at 37° C. for 2 hours.
After incubation, 50 μL of the sample from each well of the apical chambers and the basolateral chambers of the transwells was transferred to new sample tubes respectively. 200 μL of acetonitrile (100 nM of Alprazolam, 200 nM of Labetalol, 200 nM of caffeine, and 2 μM of Ketoprofen) as an internal standard was added to the sample tubes, vortexed for 10 minutes, and centrifuged at 3220 g for 30 minutes. 100 μL of the supernatant was taken and diluted with an equal volume of water for LC-MS/MS analysis. Each sample was incubated in triplicate.
Peak-areas were calculated from ion chromatography results. The apparent permeability coefficient (Papp, unit: cm/s×10-6) of the compounds was calculated by the following formula.
In the formula, VA was the volume of the solution at the acceptor end (Ap→B1 was 0.235 mL, and B1→Ap was 0.075 mL), Area was the membrane area (0.143 cm^2) of 96-well transwell, time was the incubation time (unit: s), [drug]acceptor referred to the drug concentration of the acceptor end after incubation, and [drug]initial,donor referred to the initial concentration of the donor end before incubation.
Efflux ratio was calculated with the following formula.
In the formula, Papp(B_A) was the apparent permeability coefficient from the basolateral end to the apical end, and Papp(A-B) was the apparent permeability coefficient from the apical end to the basolateral end.
The recovery rate was calculated with the following formula.
In the formula, VA was the solution volume of the acceptor end (unit: mL), VD was the solution volume of the donor end (unit: mL), [drug]acceptor referred to the drug concentration of the acceptor end after incubation, and [drug]initial,donor referred to the initial concentration of the donor end before incubation.

[2] = Maximal tolerance dose (MTD) experiment; format: in vivo, ICR mice
Experimental: 18 ICR mice, 9 females/9 males, were selected for the experiment. According to gender and body weight, the mice were randomly divided into a 10 mg/kg group, a 20 mg/kg group, and a 40 mg/kg group of the S-configuration of compound 01, with 3 females/3 males in each group. By intravenous injection, the 10 mg/kg group of the S-configuration of compound 01 was administered with 1 mg/ml of the administration concentration, 10 ml/kg of the administration volume, and 10 mg/kg of the dose. The 20 mg/kg group containing the S-configuration of compound 01 was administered with 2 mg/ml of the administration concentration, 10 ml/kg of the administration volume, and 20 mg/kg of the dose. The 40 mg/kg group containing the S-configuration of compound 01 was administered with 4 mg/ml of the administration concentration, 10 ml/kg of the administration volume, and 40 mg/kg of the dose. The mice was administered once a day for 5 consecutive days, and recovered for 2 weeks after the last administration. The mice were closely observed for 2 hours after administration of the daily drug. The mice were observed twice a day in the morning and afternoon on the non-administration day. During the experiment, body weight and food intake were measured twice a week. The dead animals and all the survival animals were subjected to gross necropsy on the 14th day after the last administration. The diseased organic were grossly necropsied for histopathological examination.
18 ICR mice, 9 females/9 males, were selected for the experiment. According to gender and body weight, the mice were randomly divided into a 10 mg/kg group, a 20 mg/kg group, and a 40 mg/kg group of the R-configuration of compound 01, with 3 females/3 males in each group. By intravenous injection, the 10 mg/kg group of the R-configuration of compound 01 was administered with 1 mg/ml of the administration concentration, 10 ml/kg of the administration volume, and 10 mg/kg of the dose. The 20 mg/kg group of the R-configuration of compound 01 was administered with 2 mg/ml of the administration concentration, 10 ml/kg of the administration volume, and 20 mg/kg of the dose. The 40 mg/kg group of the R-configuration of compound 01 was administered with 4 mg/ml of the administration concentration, 10 ml/kg of the administration volume, and 40 mg/kg of the dose. The mice was administered once a day for 5 consecutive days, and recovered for 1 week after the last administration. […] To find the maximum tolerated dose, a second cycle of dosing was required. The doses were adjusted and administered for 5 consecutive days.
The mice were closely observed for 2 hours after administration of the daily drug. The mice were observed twice a day in the morning and afternoon on the non-administration day. During the experiment, body weight and food intake were measured twice a week. The dead animals and all the survival animals were subjected to gross necropsy on the 14th day after the last administration. The diseased organic were grossly necropsied for histopathological examination.

[3] = MDCK-MDR1, Recovery (%) AP-BL, Verapamil 0 μM
[4] = MDCK-MDR1, Recovery (%) AP-BL, Verapamil 100 μM
[5] = MDCK-MDR1, Recovery (%) BL-AP, Verapamil 0 μM
[6] = MDCK-MDR1, Recovery (%) BL-AP, Verapamil 100 μM

O=[N+]([O-])c1cccc2ccc(COP(=O)(N3CC3)N3CC3)cc12 [Compound 06]
IC50 [1]: 172 nM

CC(OP(=O)(N1CC1)N1CC1)c1ccc2cccc([N+](=O)[O-])c2c1 (stereo not shown) [Compound 07]
IC50 [1]: 168 nM

O=[N+]([O-])c1ccc(COP(=O)(N2CC2)N2CC2)c2ccncc12 [Compound 21]
IC50 [1]: 7.17 nM

CC(OP(=O)(N1CC1)N1CC1)c1ccc([N+](=O)[O-])c2ccncc12 (stereo not shown) [Compound 13]
IC50 [1]: 12.9 nM

CC(OP(=O)(N1CC1)N1CC1)c1ccc([N+](=O)[O-])c2ncccc12 (stereo not shown) [Compound 15]
IC50 [1]: 145 nM

O=[N+]([O-])c1ccc(COP(=O)(N2CC2)N2CC2)c2ccccc12 [Compound 02]
IC50 [1]: 755 nM

O=[N+]([O-])c1ccc(COP(=O)(N2CC2)N2CC2)c2ncccc12 [Compound 20]
IC50 [1]: 41.5 nM | Papp A→B at 2 h (P-glycoprotein): 33.7 ×10⁻⁶ cm/s | Papp B→A at 2 h (P-glycoprotein): 21.8 ×10⁻⁶ cm/s | recovery at 2 h (P-glycoprotein; [3]): 92.7% | recovery at 2 h (P-glycoprotein; [4]): 87.6% | recovery at 2 h (P-glycoprotein; [5]): 96.3% | recovery at 2 h (P-glycoprotein; [6]): 96.2% | P-glycoprotein substrate (experimental conclusion) (P-glycoprotein): not P-glycoprotein substrates

CC(OP(=O)(N1CC1)N1CC1)c1ccc2ccccc2c1[N+](=O)[O-] (stereo not shown) [Compound 04]
Anticancer activity compared to the compound of control 2 [1]: obviously worse | IC50 [1]: 9280 nM

O=[N+]([O-])c1ccc(C(OP(=O)(N2CC2)N2CC2)C(F)(F)F)c2ncccc12 (stereo not shown) [Compound 16]
IC50 [1]: 34.9 nM

O=[N+]([O-])c1c(C(OP(=O)(N2CC2)N2CC2)C(F)(F)F)ccc2ccccc12 (stereo not shown) [Compound 05]
Anticancer activity compared to the compound of control 2 [1]: obviously worse | IC50 [1]: 9020 nM

O=[N+]([O-])c1ccc(C(OP(=O)(N2CC2)N2CC2)C(F)(F)F)c2ccncc12 (stereo not shown) [Compound 18]
IC50 [1]: 7.88 nM

O=[N+]([O-])c1cccc2ccc(C(OP(=O)(N3CC3)N3CC3)C(F)(F)F)cc12 (stereo not shown) [Compound 08]
IC50 [1]: 3840 nM

COCCc1ccc(OCC(O)CNC(C)C)cc1 (stereo not shown) [Metoprolol, reference compound]
Papp A→B at 2 h (P-glycoprotein): 26 ×10⁻⁶ cm/s | Papp B→A at 2 h (P-glycoprotein): 18.9 ×10⁻⁶ cm/s

O=[N+]([O-])c1cc(COP(=O)(N2CC2)N2CC2)cc2ccccc12 [Compound 25]
IC50 [1]: 106 nM

O=[N+]([O-])c1ccc([C@H](OP(=O)(N2CC2)N2CC2)C(F)(F)F)c2ccccc12 [S-configuration of compound 01]
Clinical symptoms after administration ([2]; 10 mg/kg group and 20 mg/kg group): in good condition | Clinical symptoms after administration ([2]; 40 mg/kg group): unsteady gait, deepened breathing, accelerated breathing, and decreased spontaneous activity | Animals died ([2]; 40 mg/kg group, i.v., 5 consecutive days): 3 of the 6 | Effect on animal body weight ([2]; after intravenous injection in mice): increased slowly | Gross necropsy of the surviving animals ([2]; after the recovery period): on obvious gross pathological changes | MTD at 5 days ([2]; both sexes, ICR, mouse, in vivo, iv, ICR mice, intravenous injection, once a day for 5 consecutive days, read-out: Maximum tolerated dose / MTD result): 20 mg/kg | Average food intake vs normal mice ([2]; each administration group): no significant difference

O=[N+]([O-])c1ccc(COP(=O)(N2CC2)N2CC2)c2cccnc12 [Compound 22]
IC50 [1]: 200 nM

CC(OP(=O)(N1CC1)N1CC1)c1ccc([N+](=O)[O-])c2cccnc12 (stereo not shown) [Compound 12]
IC50 [1]: 35.2 nM

O=[N+]([O-])c1cccc2cc(COP(=O)(N3CC3)N3CC3)ccc12 [Compound 24]
IC50 [1]: 478 nM

O=[N+]([O-])c1cccc2c(COP(=O)(N3CC3)N3CC3)cccc12 [Compound 09]
IC50 [1]: 1650 nM

CC(OP(=O)(N1CC1)N1CC1)c1ccc([N+](=O)[O-])c2cnccc12 (stereo not shown) [Compound 14]
IC50 [1]: 3.82 nM | Papp A→B at 2 h (P-glycoprotein): 12.9 ×10⁻⁶ cm/s | Papp B→A at 2 h (P-glycoprotein): 26.3 ×10⁻⁶ cm/s | recovery at 2 h (P-glycoprotein; [3]): 91.1% | recovery at 2 h (P-glycoprotein; [4]): 80.8% | recovery at 2 h (P-glycoprotein; [5]): 104% | recovery at 2 h (P-glycoprotein; [6]): 90.8% | P-glycoprotein substrate (experimental conclusion) (P-glycoprotein): not P-glycoprotein substrates

O=[N+]([O-])c1cccc2c(C(OP(=O)(N3CC3)N3CC3)C(F)(F)F)cccc12 (stereo not shown) [Compound 11]
IC50 [1]: 7650 nM

CC(OP(=O)(N1CC1)N1CC1)c1cccc2c([N+](=O)[O-])cccc12 (stereo not shown) [Compound 10]
IC50 [1]: 692 nM

O=[N+]([O-])c1ccc(C(OP(=O)(N2CC2)N2CC2)C(F)(F)F)c2cccnc12 (stereo not shown) [Compound 19]
IC50 [1]: 311 nM
